From US20250009742A1 (priority 2021, published 2025)

What was measured:
[1] = tested on: intracellular HBV DNA; test: Real-time PCR for intracellular HBV DNA in HepAD38 cells; type: cell-based; settings: Hepatitis B virus, HePAD38, 65 h, 65 hours treatment
[2] = Cell viability assay (EZ-Cytox), cytotoxicity; type: cell-based; settings: human, HepAD38 cells; for viability at 65 h, 100 µM: read-out: Cytotoxicity % Livability (@100 μM)
Description: HepAD38 cells were cultured for 2 days in Dulbecco's Modified Eagle's medium (Welgene, LM001-05) supplemented with 10% FBS without tetracycline. […] After 65 hours of treatment, viability was measured using EZ-Cytox cell viability assay kit (Daeil Lab Service) according to the manufacturer's instructions. The absorbance was measured at 450 nm using a spectrophotometer (Spark, Tecan).

| SMILES | IC50 [1] [nM] | CC50 at 65 h [2] [nM] | viability at 65 h, 100 µM [2] [%] |
| --- | --- | --- | --- |
| CNS(=O)(=O)c1ccc(N(Cc2n[nH]c3c2CCOC3)C(=O)Nc2ccc(F)c(Cl)c2)cc1 [Example 23, 4-(3-(3-chloro-4-fluorophenyl)-1-((1,4,5,7-tetrahydropyrano[3,4-c]pyrazol-3-yl)methyl)ureido)-N-methylbenzenesulfonamide] | > 1100 | > 100000 |  |
| COc1cc(C)c(N(Cc2cc(C(F)(F)F)[nH]n2)C(=O)Nc2ccc(F)c(Cl)c2)c(C)c1 [Example 29, 3-(3-chloro-4-fluorophenyl)-1-(4-methoxy-2,6-dimethylphenyl)-1-((5-(trifluoromethyl)-1H-pyrazol-3-yl)methyl)urea] | > 1100 | 12200 | 6.9 |
| COc1ncc(N(Cc2n[nH]c(C(F)(F)F)c2CC(C)O)C(=O)Nc2ccc(F)c(Cl)c2)cn1 (stereo not shown) [Example 95, 3-(3-chloro-4-fluorophenyl)-1-((4-(2-hydroxypropyl)-5-(trifluoromethyl)-1H-pyrazol-3-yl)methyl)-1-(2-methoxypyrimidin-5-yl)urea] | 830 | 62200 | 29.9 |
| COc1ncc(N(Cc2n[nH]c(C(F)(F)F)c2C(C)(C)O)C(=O)Nc2ccc(F)c(C(F)F)c2)cn1 [Example 207, 3-(3-(difluoromethyl)-4-fluorophenyl)-1-((4-(2-hydroxypropan-2-yl)-5-(trifluoromethyl)-1H-pyrazol-3-yl)methyl)-1-(2-methoxypyrimidin-5-yl)urea] | 740 | > 100000 | 87.7 |
| COc1cc(N(Cc2n[nH]c3c2COC3)C(=O)Nc2ccc(F)c(Cl)c2)ccn1 [Example 70, 3-(3-chloro-4-fluorophenyl)-1-((4,6-dihydro-1H-furo[3,4-c]pyrazol-3-yl)methyl)-1-(2-methoxypyridin-4-yl)urea] | 9 | > 100000 | 98 |
| COc1ccc(N(Cc2cc(C(F)F)[nH]n2)C(=O)Nc2ccc(F)c(Cl)c2)cn1 [Example 72, 3-(3-chloro-4-fluorophenyl)-1-((5-(difluoromethyl)-1H-pyrazol-3-yl)methyl)-1-(6-methoxypyridin-3-yl)urea] | 48 | > 66600 | 48.5 |
| COc1ncc(N(Cc2cc(C(F)(F)F)[nH]n2)C(=O)Nc2cc(F)c(F)c(C#N)n2)cn1 [Example 151, 3-(6-cyano-4,5-difluoropyridin-2-yl)-1-(2-methoxypyrimidin-5-yl)-1-((5-(trifluoromethyl)-1H-pyrazol-3-yl)methyl)urea] | > 1100 | > 100000 | 87.4 |
| COc1ncc(N(Cc2cc(C(F)(F)F)[nH]n2)C(=O)Nc2ccc(C#N)c(C(F)F)c2)cn1 [Example 152, 3-(4-cyano-3-(difluoromethyl)phenyl)-1-(2-methoxypyrimidin-5-yl)-1-((5-(trifluoromethyl)-1H-pyrazol-3-yl)methyl)urea] | 26 | > 100000 | 82.7 |
| COc1ncc(N(Cc2cc(C(F)F)[nH]n2)C(=O)Nc2ccc(F)c(C(F)F)n2)cn1 [Example 196, 1-((5-(difluoromethyl)-1H-pyrazol-3-yl)methyl)-3-(6-(difluoromethyl)-5-fluoropyridin-2-yl)-1-(2-methoxypyrimidin-5-yl)urea] | 160 | 76400 | 29.2 |
| COc1nc(C)c(N(Cc2cc(C(F)(F)F)[nH]n2)C(=O)Nc2ccc(F)c(Cl)c2)c(C)n1 [Example 30, 3-(3-chloro-4-fluorophenyl)-1-(2-methoxy-4,6-dimethylpyrimidin-5-yl)-1-((5-(trifluoromethyl)-1H-pyrazol-3-yl)methyl)urea] | > 1100 | > 100000 | 52.4 |
| COc1ccc(N(Cc2n[nH]c3c2COC3)C(=O)Nc2ccc(F)c(Cl)c2)cn1 [Example 69, 3-(3-chloro-4-fluorophenyl)-1-((4,6-dihydro-1H-furo[3,4-c]pyrazol-3-yl)methyl)-1-(6-methoxypyridin-3-yl)urea] | 21 | > 100000 | 94.5 |
| COc1ncc(N(Cc2cc(C(F)(F)F)[nH]n2)C(=O)Nc2ccc(C#N)c(Cl)c2)cn1 [Example 7, 3-(3-chloro-4-cyanophenyl)-1-(2-methoxypyrimidin-5-yl)-1-((5-(trifluoromethyl)-1H-pyrazol-3-yl)methyl)urea] | 19 | > 100000 | 59.3 |
| COc1ncc(N(Cc2cc(C(F)(F)F)[nH]n2)C(=O)Nc2ccc(F)c(C(F)F)c2)cn1 [Example 189, 3-(3-(difluoromethyl)-4-fluorophenyl)-1-(2-methoxypyrimidin-5-yl)-1-((5-(trifluoromethyl)-1H-pyrazol-3-yl)methyl)urea] | 6.5 | > 100000 | 58 |
| COc1ncc(N(Cc2cc(C(F)(F)F)[nH]n2)C(=O)Nc2cc(F)c(F)c(Cl)n2)cn1 [Example 13, 3-(6-chloro-4,5-difluoropyridin-2-yl)-1-(2-methoxypyrimidin-5-yl)-1-((5-(trifluoromethyl)-1H-pyrazol-3-yl)methyl)urea] | 210 | > 100000 | 100 |
| COc1ncc(N(Cc2cc(C#N)[nH]n2)C(=O)Nc2cccc(C(F)F)c2)cn1 [Example 180, 1-((5-cyano-1H-pyrazol-3-yl)methyl)-3-(3-(difluoromethyl)phenyl)-1-(2-methoxypyrimidin-5-yl)urea] | 64 | > 100000 | 88.1 |
| COc1ncc(N(Cc2cc(C(F)(F)F)[nH]n2)C(=O)Nc2ccc(F)c(C(F)F)n2)cn1 [Example 202, 3-(6-(difluoromethyl)-5-fluoropyridin-2-yl)-1-(2-methoxypyrimidin-5-yl)-1-((5-(trifluoromethyl)-1H-pyrazol-3-yl)methyl)urea] | 46 | > 100000 | 82.3 |
| N#Cc1ccc(N(Cc2n[nH]c3c2CCOC3)C(=O)Nc2ccc(F)c(Cl)c2)cn1 [Example 127, 3-(3-chloro-4-fluorophenyl)-1-(6-cyanopyridin-3-yl)-1-((1,4,5,7-tetrahydropyrano[3,4-c]pyrazol-3-yl)methyl)urea] | 510 | > 100000 | 95 |
| COCc1c(CN(C(=O)Nc2ccc(F)c(Cl)c2)c2ccc(OC)nc2)n[nH]c1C(F)F [Example 82, 3-(3-chloro-4-fluorophenyl)-1-((5-(difluoromethyl)-4-(methoxymethyl)-1H-pyrazol-3-yl)methyl)-1-(6-methoxypyridin-3-yl)urea] | > 1100 | > 100000 | 85.8 |
| COc1cc(N(Cc2cc(C(F)(F)F)[nH]n2)C(=O)Nc2ccc(F)c(Cl)c2)cnc1C#N [Example 118, 3-(3-chloro-4-fluorophenyl)-1-(6-cyano-5-methoxypyridin-3-yl)-1-((5-(trifluoromethyl)-1H-pyrazol-3-yl)methyl)urea] | > 1100 | < 50000 | 31.3 |
| COc1ncc(N(Cc2cc(C(F)(F)F)[nH]n2)C(=O)Nc2cccc(C(F)(F)F)n2)cn1 [Example 225, 1-(2-methoxypyrimidin-5-yl)-1-((5-(trifluoromethyl)-1H-pyrazol-3-yl)methyl)-3-(6-(trifluoromethyl)pyridin-2-yl)urea] | 210 | > 100000 | 105 |
| COc1ccc(N(Cc2nn(CCO)c3c2CCC3)C(=O)Nc2ccc(F)c(Cl)c2)cn1 [Example 67, 3-(3-chloro-4-fluorophenyl)-1-((1-(2-hydroxyethyl)-1,4,5,6-tetrahydrocyclopenta[c]pyrazol-3-yl)methyl)-1-(6-methoxypyridin-3-yl)urea] | > 300 | > 100000 |  |
| N#Cc1ccc(N(Cc2n[nH]c3c2COCC3)C(=O)Nc2ccc(F)c(Cl)c2)cn1 [Example 125, 3-(3-chloro-4-fluorophenyl)-1-(6-cyanopyridin-3-yl)-1-((1,4,6,7-tetrahydropyrano[4,3-c]pyrazol-3-yl)methyl)urea] | 230 | > 100000 | 109 |
| COc1ccc(N(Cc2cc(C(F)(F)F)[nH]n2)C(=O)Nc2ccc(F)c(C(F)F)c2)cn1 [Example 188, 3-(3-(difluoromethyl)-4-fluorophenyl)-1-(6-methoxypyridin-3-yl)-1-((5-(trifluoromethyl)-1H-pyrazol-3-yl)methyl)urea] | 16 | > 100000 | 97.9 |
| COC12CC(N(Cc3cc(C(F)(F)F)[nH]n3)C(=O)Nc3cc(F)c(F)c(F)c3)(C1)C2 [Example 222, 1-(3-methoxybicyclo[1.1.1]pentan-1-yl)-1-((5-(trifluoromethyl)-1H-pyrazol-3-yl)methyl)-3-(3,4,5-trifluorophenyl)urea] | 120 | 31700 | 2.5 |
| COc1ncc(N(Cc2n[nH]c(C(F)F)c2C(C)(C)O)C(=O)Nc2ccc(F)c(C(F)F)c2)cn1 [Example 198, 1-((5-(difluoromethyl)-4-(2-hydroxypropan-2-yl)-1H-pyrazol-3-yl)methyl)-3-(3-(difluoromethyl)-4-fluorophenyl)-1-(2-methoxypyrimidin-5-yl)urea] | > 1100 | > 100000 | 102 |
| COc1ncc(N(Cc2cc(C(F)(F)F)[nH]n2)C(=O)Nc2ccc(F)c(C#N)c2)cn1 [Example 154, 3-(3-cyano-4-fluorophenyl)-1-(2-methoxypyrimidin-5-yl)-1-((5-(trifluoromethyl)-1H-pyrazol-3-yl)methyl)urea] | 13 | > 100000 | 73 |
